Among the data in PubChem BioAssay AID1259411 (Chemical Carcinogenesis Research Information System (CCRIS), 2018) are carcinogen call values, retold here.

For this series, the system named is rodent carcinogenicity bioassays, tumor incidence. Put plainly: CCRIS carcinogenicity studies. In short, it runs like this:
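Archive of carcinogenicity, mutagenicity, tumor promotion and tumor inhibition results drawn from journals, NCI reports and other sources, expert-reviewed; covers 1985-2011 and is no longer updated.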

Calls of active or inactive are those of the source. How the calls were made is not given here.

In the case of `Clc1cc2c(cc1Cl)Oc1cc(Cl)c(Cl)cc1O2`, the carcinogen call by setting is: (Species: MOUSE, Strain/Sex: B6C3/FEMALE, Route: GAVAGE, Dose: 0, 2.5, 5 UG/KG IN CORN OIL 1/WK FOR 52 WK (STUDY DURATION: 110 WK), Dose: 0, 2.5, 5 UG/KG IN CORN OIL 1/WK FOR 52 WK (STUDY DURATION: 110 WK), Tumor Site: Type of Lesion: LIVER: HEPATOCELLULAR ADENOMA, HEPTOCELLULAR CARCINOMA) “active; positive”; (Species: MOUSE, Strain/Sex: B6C3/FEMALE, Route: INTRAPERITONEAL, Dose: 0, 1, 30, 60, UG/KG 1/WK FOR 5 WK BEGINNING AT 10 D OF AGE (STUDY DURATION: 78 WK), Dose: 0, 1, 30, 60, UG/KG 1/WK FOR 5 WK BEGINNING AT 10 D OF AGE (STUDY DURATION: 78 WK), Tumor Site: Type of Lesion: LIVER: HEPATOCELLULAR ADENOMA, THYMUS: LYMPHOMA) “active; positive”; (Species: MOUSE, Strain/Sex: B6C3/MALE, Route: GAVAGE, Dose: 0, 2.5, 5 UG/KG IN CORN OIL 1/WK FOR 52 WK (STUDY DURATION: 110 WK), Dose: 0, 2.5, 5 UG/KG IN CORN OIL 1/WK FOR 52 WK (STUDY DURATION: 110 WK), Tumor Site: Type of Lesion: LIVER: HEPATOCELLULAR CARCINOMA) “active; positive”; (Species: MOUSE, Strain/Sex: B6C3/MALE, Route: INTRAPERITONEAL, Dose: 0, 1, 30, 60, UG/KG 1/WK FOR 5 WK BEGINNING AT 10 D OF AGE (STUDY DURATION: 78 WK), Dose: 0, 1, 30, 60, UG/KG 1/WK FOR 5 WK BEGINNING AT 10 D OF AGE (STUDY DURATION: 78 WK), Tumor Site: Type of Lesion: LIVER: HEPATOCELLULAR ADENOMA, HEPTOCELLULAR CARCINOMA, THYMUS: LYMPHOMA) “active; positive”; (Species: MOUSE, Strain/Sex: B6C3F1/FEMALE, Route: GAVAGE, Dose: 0, 0.04, 0.2, 2.0 UG/KG SUSPENDED IN 9:1 CORN OIL-ACETONE, Dose: 0, 0.04, 0.2, 2.0 UG/KG SUSPENDED IN 9:1 CORN OIL-ACETONE, Tumor Site: Type of Lesion: LIVER: HEPATOCELLULAR CARCINOMA, THYROID GLAND: FOLLICULAR CELL ADENOMA) “active; positive”; (Species: MOUSE, Strain/Sex: B6C3F1/MALE, Route: GAVAGE, Dose: 0, 0.01, 0.05, 0.5 UG/KG SUSPENDED IN 9:1 CORN OIL-ACETONE, Dose: 0, 0.01, 0.05, 0.5 UG/KG SUSPENDED IN 9:1 CORN OIL-ACETONE, Tumor Site: Type of Lesion: LIVER: HEPATOCELLULAR CARCINOMA) “active; positive”. Further, the carcinogen call by setting is: (Species: MOUSE, Strain/Sex: SWISS/FEMALE, Route: DERMAL, Dose: 0.005 UG IN ACETONE SUSPENSION 3/WK FOR 99 OR 104 WK (STUDY DURATION: 99 OR 104 WK), Tumor Site: Type of Lesion: INTEGUMENTARY SYSTEM (SUBCUTANEOUS TISSUE): FIBROSARCOMA) “active; positive”; (Species: MOUSE, Strain/Sex: SWISS/MALE, Route: DERMAL, Dose: 0.001 UG IN ACETONE SUSPENSION 3/WK FOR 99 OR 104 WK (STUDY DURATION: 99 OR 104 WK), Tumor Site: Type of Lesion: INTEGUMENTARY SYSTEM (SUBCUTANEOUS TISSUE): FIBROSARCOMA) “equivocal”; (Species: RAT, Strain/Sex: OSBORNE-MENDEL/FEMALE, Route: GAVAGE, Dose: 0, 0.01, 0.05, 0.5 UG/KG SUSPENDED IN 9:1 CORN OIL-ACETONE, Dose: 0, 0.01, 0.05, 0.5 UG/KG SUSPENDED IN 9:1 CORN OIL-ACETONE, Tumor Site: Type of Lesion: LIVER: NEOPLASTIC NODULE) “active; positive”; (Species: RAT, Strain/Sex: OSBORNE-MENDEL/MALE, Route: GAVAGE, Dose: 0, 0.01, 0.05, 0.5 UG/KG SUSPENDED IN 9:1 CORN OIL-ACETONE, Dose: 0, 0.01, 0.05, 0.5 UG/KG SUSPENDED IN 9:1 CORN OIL-ACETONE, Tumor Site: Type of Lesion: THYROID GLAND: FOLLICULAR CELL ADENOMA) “active; positive”; (Species: RAT, Strain/Sex: SPRAGUE-DAWLEY/FEMALE, Route: ORAL, Dose: 0, 3, 10, 22, 46, 100 NG/KG/D (STUDY DURATION: 2 YRS), Dose: 0, 3, 10, 22, 46, 100 NG/KG/D (STUDY DURATION: 2 YRS), Tumor Site: Type of Lesion: ORAL MUCOSA: SQUAMOUS CELL CARCINOMA) “active; positive; highest dose only”; (Species: Rat, Strain/Sex: Harlan Sprague-Dawley/Female (50 dosed animals), Route: Gavage, Dose: 0, 100 ng/kg (Test material solvent: corn oil: acetone (99:1))) “inactive; negative”. The carcinogen call was “active; positive; findings in pancreas and in liver for hepatocholangioma and cholangiom” (Species: Rat, Strain/Sex: Harlan Sprague-Dawley/Female, Route: Gavage, Dose: 0, 3, 10, 22, 46, 100 ng/kg (Test material solvent: corn oil: acetone (99:1)), Dose: 0, 3, 10, 22, 46, 100 ng/kg (Test material solvent: corn oil: acetone (99:1)), Tumor Site: Type of Lesion: Liver: Hepatocellular adenoma (0/53, 0/54, 0/53, 1/53, 13/53, 2/50), Cholangiocarcinoma (0/53, 0/54, 0/53, 1/53, 4/53, 2); “active; positive” (Species: Rat, Strain/Sex: Spartan Sprague Dawley/Female (50/Experimental Group; 86 Controls), Route: Oral, Dose: 0, 1, 10, 100 ng/kg in food, 7 days a wk for 2 yr, Dose: 0, 1, 10, 100 ng/kg in food, 7 days a wk for 2 yr).

With `OCc1ccccc1`, the carcinogen call (Species: MOUSE, Strain/Sex: B6C3F1/F, Route: GAVAGE, Dose: 0, 100, 200 MG/KG IN CORN OIL 5D/WK FOR 103 WK (STUDY DURATION: 106 WK), Dose: 0, 100, 200 MG/KG IN CORN OIL 5D/WK FOR 103 WK (STUDY DURATION: 106 WK)) was “inactive; negative”; the carcinogen call (Species: MOUSE, Strain/Sex: B6C3F1/M, Route: GAVAGE, Dose: 0, 100, 200 MG/KG IN CORN OIL 5D/WK FOR 103 WK (STUDY DURATION: 106 WK), Dose: 0, 100, 200 MG/KG IN CORN OIL 5D/WK FOR 103 WK (STUDY DURATION: 106 WK)) was “inactive; negative”; the carcinogen call (Species: RAT, Strain/Sex: F344/F, Route: GAVAGE, Dose: 0, 200, 400 MG/KG IN CORN OIL 5D/WK FOR 103 WK (STUDY DURATION: 105 WK), Dose: 0, 200, 400 MG/KG IN CORN OIL 5D/WK FOR 103 WK (STUDY DURATION: 105 WK)) is “inactive; negative”; the carcinogen call (Species: RAT, Strain/Sex: F344/M, Route: GAVAGE, Dose: 0, 200, 400 MG/KG IN CORN OIL 5D/WK FOR 103 WK (STUDY DURATION: 105 WK), Dose: 0, 200, 400 MG/KG IN CORN OIL 5D/WK FOR 103 WK (STUDY DURATION: 105 WK)) is “inactive; negative”.

`O.O=S(=O)([O-])[O-].[Mn+2]`: the carcinogen call was “equivocal” (Species: MOUSE, Strain/Sex: B6C3F1/FEMALE, Route: ORAL, Dose: 0, 1500, 5000, 15000 PPM IN DIET (0; 60; 200; 615 MG/KG/D) FOR 105 WK (STUDY DURATION: 105 WK), Dose: 0, 1500, 5000, 15000 PPM IN DIET (0; 60; 200; 615 MG/KG/D) FOR 105 WK (STUDY DURATION: 105 WK), Tumor Site: Type of Lesion: THYROID GLAND (FOLLICULAR CELL): ADENOMA); “equivocal” (Species: MOUSE, Strain/Sex: B6C3F1/MALE, Route: ORAL, Dose: 0, 1500, 5000, 15000 PPM IN DIET (0; 60; 200; 615 MG/KG/D) FOR 105 WK (STUDY DURATION: 105 WK), Dose: 0, 1500, 5000, 15000 PPM IN DIET (0; 60; 200; 615 MG/KG/D) FOR 105 WK (STUDY DURATION: 105 WK), Tumor Site: Type of Lesion: THYROID GLAND (FOLLICULAR CELL): ADENOMA); “inactive; negative” (Species: RAT, Strain/Sex: F344/FEMALE, Route: ORAL, Dose: 0, 1500, 5000, 15000 PPM IN DIET (0; 70; 230; 715 MG/KG/D) FOR 2 YR (STUDY DURATION: 2 YR), Dose: 0, 1500, 5000, 15000 PPM IN DIET (0; 70; 230; 715 MG/KG/D) FOR 2 YR (STUDY DURATION: 2 YR)); “inactive; negative” (Species: RAT, Strain/Sex: F344/MALE, Route: ORAL, Dose: 0, 1500, 5000, 15000 PPM IN DIET (0; 60; 200; 615 MG/KG/D) FOR 2 YR (STUDY DURATION: 2 YR), Dose: 0, 1500, 5000, 15000 PPM IN DIET (0; 60; 200; 615 MG/KG/D) FOR 2 YR (STUDY DURATION: 2 YR)).
